Test results taken from patent US20250352488A1, “IONIZABLE LIPIDS AND NANOPARTICLES COMPRISING SAME” (MANA BIO LTD., priority 2022, published 2025).

Tests used:
cells = assay: cell-penetration of LNPs and intracellular delivery of mRNA; type: cell-based; conditions: LNPs containing the compound as ionizable lipid; compared to a similar composition comprising Dlin-MC3-DMA
Description: The inventors determined cell-penetration of the exemplary LNPs and intracellular delivery of mRNA.
More specifically, particles were incubated on cells for 16-24 hrs at 37° C. under 5% CO2 and expression levels were measured. Formulations were compared to Lipofectamine control and to MC3 control, as well as to untreated controls.

BALB/c mouse = assay: in vivo expression distribution of encapsulated mRNA F-LUC (IVIS imaging, ex-vivo tissue analysis); conditions: intravenous, 13 μg/mouse
Description: (§1) The inventors determined the expression distribution of the exemplary LNPs in vivo by assessing expression of the encapsulated mRNA (mRNA F-LUC). The LNPS of the invention encapsulating mRNA F-LUC have been injected intravenously into a BALB/c mouse, at a dosage of 13 μg/mouse (0.52-0.65 mg/kg). In-vivo imaging were done by IVIS imaging. Ex-vivo tissue analysis was done for lung, heart, spleen, kidney, and liver using IVIS. Histology assessment was determined by H&E staining with pathologist report for toxicity. Histology assessment concluded normal morphology without any treatment related pathological changes.
as §1, with “LNPs” for “LNPS”

lung cells = assay: cell-based studies of specificity to lung cells; conditions: LNPs containing the compound as ionizable lipid; compared to a similar composition comprising Dlin-MC3-DMA

Compound: CCCCCCCCOCC(O)CN(CCCCN(CC(O)COCCCCCCCC)CC(O)COCCCCCCCC)CC(O)COCCCCCCCC (centres unmarked) [MB-208]
- internalization efficiency (cells): superior internalization efficiency

Compound: CCCCCCCCCCCCOCC(O)CN(CCCCCCCCN(CC(O)COCCCCCCCCCCCC)CC(O)COCCCCCCCCCCCC)CC(O)COCCCCCCCCCC (centres unmarked) [MB-205]
- internalization efficiency (cells): superior internalization efficiency

Compound: CCCCCCCCOCC(O)CN(CCOCCOCCN(CC(O)COCCCCCCCC)CC(O)COCCCCCCCC)CC(O)COCCCCCCCC (centres unmarked) [MB-212]
- lung specificity of the LNP (BALB/c mouse): enhanced lung specificity
- internalization efficiency (cells): superior internalization efficiency
- specificity to the lung cells (lung cells): enhanced specificity to the lung cells

Compound: CCCCCCCCCOCC(O)CN(CCN(CC(O)COCCCCCCCCC)CC(O)COCCCCCCCCC)CC(O)COCCCCCCCCC (centres unmarked) [MB-77]
- internalization efficiency (cells): superior internalization efficiency

Compound: CCCCCCCCOCC(O)CN(CCCCCCCCN(CC(O)COCCCCCCCC)CC(O)COCCCCCCCC)CC(O)COCCCCCCCC (centres unmarked) [MB-222]
- lung specificity of the LNP (BALB/c mouse): enhanced lung specificity
- specificity to the lung cells (lung cells): enhanced specificity to the lung cells
